ChEMBL document CHEMBL6127121, “Development of N-(4-(1H-Imidazol-1-yl)phenyl)-4-chlorobenzenesulfonamide, a Novel Potent Inhibitor of β-Catenin with Enhanced Antitumor Activity and Metabolic Stability” (J Med Chem, 2024)
pEC50: −log10 of the molar value. The source made the active and inactive calls. The calls are words filed in the database; no cut-off is given here.

Tests used:
SW480 [1] = assay: Inhibition of cell growth in human SW480 cells incubated for 48 to 72 hrs by XTT method; type: functional, cell-based
SW480 [2] = assay: Inhibition of Wnt/beta-catenin signaling in human SW480 cells assessed as residual activity at IC50 concentration incubated for 12 hrs by Topflash/Fopflash Dual-Glo luciferase reporter assay; type: cell-based; settings: dose 30.0 µM
HCT-116 [3] = assay: Inhibition of cell growth in human HCT-116 cells incubated for 48 to 72 hrs by XTT method; type: functional, cell-based
HCT-116 [4] = assay: Inhibition of Wnt/beta-catenin signaling in human HCT-116 cells assessed as residual activity at IC50 concentration incubated for 12 hrs by Topflash/Fopflash Dual-Glo luciferase reporter assay; type: cell-based; settings: dose 30.0 µM
HCT-116 [5] = assay: Downregulation of beta-catenin protein level in human HCT-116 cells incubated for 24 hrs in presence of 50 mM LiCl by Western blotting analysis; type: functional, cell-based; settings: dose 10-100 µM
[6] = biological target: T1, Catenin beta-1 (Homo sapiens) (UniProt P35222); assay: Inhibition of beta-catenin in human HCT-116 cells transfected with luciferase based vectors at 1 to 10 nM incubated for 48 hrs in presence of LiCl; type: cell-based; settings: dose 1-10 nM
T1 sequence (whole entry): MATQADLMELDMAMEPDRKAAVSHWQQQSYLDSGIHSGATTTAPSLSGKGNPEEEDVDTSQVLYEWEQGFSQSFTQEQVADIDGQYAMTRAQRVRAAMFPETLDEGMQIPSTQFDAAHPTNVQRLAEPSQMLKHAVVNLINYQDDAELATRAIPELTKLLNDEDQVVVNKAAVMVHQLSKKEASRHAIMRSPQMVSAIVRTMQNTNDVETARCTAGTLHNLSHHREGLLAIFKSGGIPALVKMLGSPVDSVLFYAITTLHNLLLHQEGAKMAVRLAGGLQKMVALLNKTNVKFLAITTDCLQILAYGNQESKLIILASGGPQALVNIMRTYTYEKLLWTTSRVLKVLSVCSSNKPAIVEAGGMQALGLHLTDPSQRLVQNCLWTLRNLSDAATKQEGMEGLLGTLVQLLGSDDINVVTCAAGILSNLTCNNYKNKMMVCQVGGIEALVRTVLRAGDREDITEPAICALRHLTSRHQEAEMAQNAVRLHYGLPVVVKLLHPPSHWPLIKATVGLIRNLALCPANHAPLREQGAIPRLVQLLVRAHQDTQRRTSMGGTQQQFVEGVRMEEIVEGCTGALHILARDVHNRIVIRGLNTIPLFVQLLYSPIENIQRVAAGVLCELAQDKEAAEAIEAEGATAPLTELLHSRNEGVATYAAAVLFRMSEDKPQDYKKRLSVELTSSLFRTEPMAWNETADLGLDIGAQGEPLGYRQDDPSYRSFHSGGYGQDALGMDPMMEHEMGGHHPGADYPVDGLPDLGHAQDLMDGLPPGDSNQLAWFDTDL

HCT-116 [7] = assay: Downregulation of Fgf20 mRNA level in human HCT-116 cells at 10 uM incubated for 24 hrs by qPCR analysis; type: functional, cell-based
[8] = Metabolic stability in human liver microsomes assessed as intrinsic clearance per mg protein preincubated for 10 mins followed by NADP, glucose-6-phosphate and glucose-6-phosphate dehydrogenase addition and measured upto 60 mins by LC-MS/MS analysis; type: ADME, Microsome; settings: time < 70 min, read-out: CLH
HCT-116 [9] = assay: Antitumor activity against human HCT-116 cells xenografted in BALB/c nu/nu mouse assessed as reduction in nuclear Ki67 expression at 25 mg/kg, ip administered every 2 days for 30 day by […] based assay; type: functional, organism-based
HCT-116 [10] = assay: Downregulation of c-Myc protein level in human HCT-116 cells incubated for 24 hrs in presence of 50 mM LiCl by Western blotting analysis; type: functional, cell-based; settings: dose 10-100 µM
HCT-116 [11] = assay: Downregulation of Sall4 mRNA level in human HCT-116 cells at 10 uM incubated for 24 hrs by qPCR analysis; type: functional, cell-based
HCT-116 [12] = assay: Antitumor activity against human HCT-116 cells xenografted in BALB/c nu/nu mouse assessed as reduction in tumor weight at 25 mg/kg, ip administered every 2 days for 30 day; type: functional, organism-based
[13] = Metabolic stability in mouse liver microsomes assessed as intrinsic clearance per mg protein preincubated for 10 mins followed by NADP, glucose-6-phosphate and glucose-6-phosphate dehydrogenase addition and measured upto 60 mins by LC-MS/MS analysis; type: ADME, Microsome; settings: time < 70 min, read-out: CLH
[14] = Downregulation of c-Myc mRNA level in human HCT-116 cells at 10 uM incubated for 24 hrs in presence of 50 mM LiCl by qPCR analysis; type: functional
HCT-116 [15] = assay: Downregulation of c-Myc mRNA level in human HCT-116 cells incubated for 24 hrs in presence of 50 mM LiCl by qPCR analysis; type: functional, cell-based; settings: dose 10-100 µM
HCT-116 [16] = assay: Antitumor activity against human HCT-116 cells xenografted in BALB/c nu/nu mouse assessed as reduction in tumor volume at 25 mg/kg, ip administered every 2 days for 30 day; type: functional, organism-based
[17] = biological target: T1, Catenin beta-1 (Homo sapiens); assay: Inhibition of beta-catenin in human HCT-116 cells transfected with luciferase based vectors incubated for 24 hrs in presence of LiCl; type: cell-based; settings: dose 50-100 nM
[18] = Metabolic stability in mouse liver microsomes assessed as half life preincubated for 10 mins followed by NADP, glucose-6-phosphate and glucose-6-phosphate dehydrogenase addition and measured upto 60 mins by LC-MS/MS analysis; type: ADME, Microsome; settings: time < 70 min
[19] = Metabolic stability in human liver microsomes assessed as half life preincubated for 10 mins followed by NADP, glucose-6-phosphate and glucose-6-phosphate dehydrogenase addition and measured upto 60 mins by LC-MS/MS analysis; type: ADME, Microsome; settings: time < 70 min
MDA-MB-231 [20] = assay: Antiproliferative activity against human MDA-MB-231 cells at 40 uM incubated for 24 hrs by IncuCyte live-cell imaging analysis; type: functional, cell-based
MDA-MB-231 [21] = assay: Antiproliferative activity against human MDA-MB-231 cells at 1.48 to 40 uM incubated for 72 hrs by IncuCyte live-cell imaging analysis; type: functional, cell-based; settings: dose 1.48-40 µM
MDA-MB-231 [22] = assay: Antiproliferative activity against human MDA-MB-231 cells at 13.33 uM incubated for 72 hrs by IncuCyte live-cell imaging analysis; type: functional, cell-based

| SMILES | pEC50 (SW480 [1]) | Activity (SW480 [2]) | pEC50 (HCT-116 [3]) | Activity (HCT-116 [4]) | further results |
| --- | --- | --- | --- | --- | --- |
| O=S(=O)(Nc1ccc(-n2ccnc2)cc1)c1ccc(Br)cc1 | < 4.30 | 7.2% | < 4.30 | 6.4% |  |
| O=S(=O)(Nc1ccc(-n2ccnc2)cc1)c1ccc(Cl)cc1 | 5.70 | 3.7% | 6.92 | 2.5% | Activity (HCT-116 [5]): Dose-Dependent Effect; inhibition [6]: Active; Activity (HCT-116 [7]): Active; microsomal CLint [8]: < 3 µL/min/mg; Activity (HCT-116 [9]): Active; Activity (HCT-116 [10]): Dose-Dependent Effect; Activity (HCT-116 [11]): Active; Activity (HCT-116 [12]): Active; microsomal CLint [13]: < 3 µL/min/mg; Activity [14]: 50%; Activity (HCT-116 [15]): Dose-Dependent Effect; Activity (HCT-116 [16]): Active; inhibition [17]: Dose-Dependent Effect; half-life [18]: > 500 min; half-life [19]: > 500 min |
| O=S(=O)(Nc1cccc(-c2ccccc2)c1)c1ccc(C(F)(F)F)cc1 | 4.37 | 28.3% | 4.32 | 36.4% |  |
| O=S(=O)(Nc1ccc(-n2ccnc2)cc1)c1ccc(C(F)(F)F)cc1 | 4.85 | 6% | 4.80 | 4.4% |  |
| O=S(=O)(Nc1cccc(-c2ccsc2)c1)c1ccc(Br)cc1 | 4.60 | 2.7% | 4.72 | 0.8% | Activity (MDA-MB-231 [20]): Active; Activity (MDA-MB-231 [21]): Active |
| CCOC(=O)c1ccc(NS(=O)(=O)c2ccc(Br)cc2)cc1 | < 4.30 | 21.6% | < 4.30 | 18.8% |  |
| O=S(=O)(Nc1cccc(-c2ccoc2)c1)c1ccc(C(F)(F)F)cc1 | < 4.30 | 7.4% | < 4.30 | 6.7% |  |
| O=S(=O)(Nc1ccc(-c2ccoc2)cc1)c1ccc(Br)cc1 | 4.46 | 28.4% | 4.21 | 32.1% |  |
| O=S(=O)(Nc1cccc(-c2ccoc2)c1)c1ccc(Br)cc1 | 4.42 | 1.6% | 4.46 | 5.7% |  |
| CC(C)NCC(O)COc1cccc2ccccc12 (centres undefined) [PROPRANOLOL] |  |  |  |  | half-life [19]: 35.2 min |
| O=c1[nH]cc(F)c(=O)[nH]1 [FLUOROURACIL] | 4.86 |  | 4.64 |  |  |
| O=S(=O)(Nc1cccc(-c2ccccn2)c1)c1ccc(-n2cccc2)cc1 | 4.34 | 6.3% | 4.18 | 6.4% |  |
| O=S(=O)(Nc1cccc(-n2ccnc2)c1)c1ccc(Cl)cc1 | < 4.30 | 2.3% | < 4.30 | 8.4% |  |
| O=S(=O)(Nc1cccc(-c2ccco2)c1)c1ccc(C(F)(F)F)cc1 | < 4.30 | 5.3% | < 4.30 | 2.7% |  |
| O=S(=O)(Nc1ccc(-c2cccs2)cc1)c1ccc(C(F)(F)F)cc1 | 4.35 | 26.6% | 4.41 | 33.1% |  |
| COC(=O)c1ccc(NS(=O)(=O)c2ccc(Br)cc2)cc1 |  | 19.4% |  | 2.5% |  |
| O=S(=O)(Nc1ccc(-c2ccsc2)cc1)c1ccc(C(F)(F)F)cc1 | 4.77 | 5.6% | 4.92 | 2.4% |  |
| O=S(=O)(Nc1ccc(-c2ccccn2)cc1)c1ccc(Br)cc1 | 4.47 | 8.8% | 4.62 | 4.3% |  |
| O=C1[C@H](Cc2ccc(O)cc2)N2C(=O)CCN(C(=O)NCc3ccccc3)[C@H]2CN1Cc1cccc2ccccc12 |  |  |  |  | Activity (MDA-MB-231 [20]): Active |
| O=S(=O)(Nc1ccc(-c2ccsc2)cc1)c1ccc(Br)cc1 | 4.57 | 3.7% | 4.49 | 8.6% |  |
| O=S(=O)(Nc1cccc(-c2ccccc2)c1)c1ccc(Br)cc1 | 4.92 | 22.7% | 5.05 | 33.5% | Activity (MDA-MB-231 [21]): Active; Activity (MDA-MB-231 [22]): Active |
| O=S(=O)(Nc1cccc(-n2ccnc2)c1)c1ccc(Br)cc1 | < 4.30 | 3.6% | < 4.30 | 3.1% |  |
| O=S(=O)(Nc1cccc(-c2ccccn2)c1)c1ccc(C(F)(F)F)cc1 | < 4.30 | 3.4% | < 4.30 | 6.6% |  |
| O=S(=O)(Nc1ccc(-c2ccco2)cc1)c1ccc(C(F)(F)F)cc1 | < 4.30 | 6.6% | < 4.30 | 2.4% |  |
| O=S(=O)(Nc1cccc(-c2ccccn2)c1)c1ccc(I)cc1 | 4.60 | 2.6% | 4.41 | 8.5% |  |
| O=S(=O)(Nc1cccc(-n2ccnc2)c1)c1ccc(C(F)(F)F)cc1 | 4.55 | 9.1% | 4.30 | 5.1% |  |
| O=S(=O)(Nc1ccc(-c2ccccc2)cc1)c1ccc(C(F)(F)F)cc1 | 5.06 | 37.3% | 4.92 | 22.4% |  |
| O=S(=O)(Nc1ccc(-c2ccoc2)cc1)c1ccc(C(F)(F)F)cc1 | < 4.30 | 4.4% | < 4.26 | 9.7% |  |
| CCOc1ccc2ccc(=O)oc2c1 |  |  |  |  | microsomal CLint [8]: 94 µL/min/mg; microsomal CLint [13]: 712 µL/min/mg; half-life [18]: 1.9 min; half-life [19]: 14.8 min |
| O=S(=O)(Nc1ccc(-c2ccccc2)cc1)c1ccc(Br)cc1 | 4.51 | 8.1% | 4.57 | 3.2% |  |
